The values that follow come from ChEMBL document CHEMBL1201862, “PubChem BioAssay data set” (2004).

Molecules are shown by their SMILES. The source made the active and inactive calls.

Usually Ki stands for the dissociation constant of the complex between target and ligand, obtained from inhibition or displacement.

Holding throughout (type): functional
Assay [1] has as its target T1, Receptor-type tyrosine-protein kinase FLT3 (Homo sapiens, UniProt P36888).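 Also: FLT3 was tested as one member of a kinome-wide kinase panel.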
T1 sequence (P36888 whole entry): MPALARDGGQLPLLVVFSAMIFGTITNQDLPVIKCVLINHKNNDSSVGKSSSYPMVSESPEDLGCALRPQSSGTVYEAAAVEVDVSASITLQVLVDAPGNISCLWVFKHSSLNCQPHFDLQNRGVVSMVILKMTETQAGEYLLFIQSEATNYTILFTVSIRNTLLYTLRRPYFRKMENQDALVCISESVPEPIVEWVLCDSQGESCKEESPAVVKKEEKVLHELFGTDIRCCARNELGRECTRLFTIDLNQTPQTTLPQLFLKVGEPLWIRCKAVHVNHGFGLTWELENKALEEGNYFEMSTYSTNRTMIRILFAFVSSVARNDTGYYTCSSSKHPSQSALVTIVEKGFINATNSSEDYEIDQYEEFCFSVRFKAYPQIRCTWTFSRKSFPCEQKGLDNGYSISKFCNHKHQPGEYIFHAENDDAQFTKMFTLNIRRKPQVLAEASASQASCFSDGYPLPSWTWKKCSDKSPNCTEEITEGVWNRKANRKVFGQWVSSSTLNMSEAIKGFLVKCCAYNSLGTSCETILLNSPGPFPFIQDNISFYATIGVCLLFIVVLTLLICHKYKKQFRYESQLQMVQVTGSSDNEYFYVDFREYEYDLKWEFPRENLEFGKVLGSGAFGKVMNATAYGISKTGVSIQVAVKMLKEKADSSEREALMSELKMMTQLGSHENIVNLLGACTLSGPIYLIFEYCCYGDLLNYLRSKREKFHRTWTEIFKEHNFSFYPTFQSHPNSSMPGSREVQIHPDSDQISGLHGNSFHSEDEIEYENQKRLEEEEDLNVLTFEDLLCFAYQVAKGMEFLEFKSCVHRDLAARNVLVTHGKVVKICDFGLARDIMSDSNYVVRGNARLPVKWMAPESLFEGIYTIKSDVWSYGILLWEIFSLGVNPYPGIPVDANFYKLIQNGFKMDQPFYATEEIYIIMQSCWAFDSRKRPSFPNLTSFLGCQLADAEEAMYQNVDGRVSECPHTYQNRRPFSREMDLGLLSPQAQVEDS

The target of assay [2] is Serine/threonine-protein kinase PAK 4 (Homo sapiens, UniProt O96013).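 Also: value obtained within a kinome profiling panel in which PAK4 was one of the panel members.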
Serine/threonine-protein kinase PAK 4, sequence (O96013 whole entry): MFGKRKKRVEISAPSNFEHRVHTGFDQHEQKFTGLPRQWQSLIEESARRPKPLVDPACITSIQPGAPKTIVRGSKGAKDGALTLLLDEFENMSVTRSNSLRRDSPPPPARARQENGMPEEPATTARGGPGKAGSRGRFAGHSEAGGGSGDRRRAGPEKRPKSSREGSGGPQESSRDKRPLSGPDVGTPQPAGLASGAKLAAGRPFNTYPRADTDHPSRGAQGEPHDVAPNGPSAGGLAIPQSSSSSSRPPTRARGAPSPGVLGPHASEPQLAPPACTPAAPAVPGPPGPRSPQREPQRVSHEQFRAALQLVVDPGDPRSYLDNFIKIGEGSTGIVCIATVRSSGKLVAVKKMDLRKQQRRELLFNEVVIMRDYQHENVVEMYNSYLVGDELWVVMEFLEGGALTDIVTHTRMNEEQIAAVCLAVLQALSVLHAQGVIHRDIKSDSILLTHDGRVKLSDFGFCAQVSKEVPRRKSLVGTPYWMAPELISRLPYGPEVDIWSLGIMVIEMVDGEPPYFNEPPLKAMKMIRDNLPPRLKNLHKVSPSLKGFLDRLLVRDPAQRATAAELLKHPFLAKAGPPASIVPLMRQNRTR
In assay [3] the target is 5'-AMP-activated protein kinase catalytic subunit alpha-1 (Homo sapiens, UniProt Q13131).
The target in assay [4] is Hepatocyte growth factor receptor (Homo sapiens, UniProt P08581).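 Also: kinase panel profiling across the kinome, with MET as the panel member.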
Assay [5] addresses Glycogen synthase kinase-3 alpha (Homo sapiens, UniProt P49840).
The target in assay [6] is Tyrosine-protein kinase JAK2 (Homo sapiens, UniProt O60674).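 Also: JAK2 tested as one member of a kinase panel.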
The target in assay [7] is Dual specificity protein kinase CLK4 (Homo sapiens, UniProt Q9HAZ1).
Assay [8] addresses Vascular endothelial growth factor receptor 2 (Homo sapiens, UniProt P35968).
The target of assay [9] is Glycogen synthase kinase-3 beta (Homo sapiens, UniProt P49841).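 Also: value comes from a broad kinome profiling panel, with GSK3B as the panel member.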
Glycogen synthase kinase-3 beta, sequence (P49841 whole entry): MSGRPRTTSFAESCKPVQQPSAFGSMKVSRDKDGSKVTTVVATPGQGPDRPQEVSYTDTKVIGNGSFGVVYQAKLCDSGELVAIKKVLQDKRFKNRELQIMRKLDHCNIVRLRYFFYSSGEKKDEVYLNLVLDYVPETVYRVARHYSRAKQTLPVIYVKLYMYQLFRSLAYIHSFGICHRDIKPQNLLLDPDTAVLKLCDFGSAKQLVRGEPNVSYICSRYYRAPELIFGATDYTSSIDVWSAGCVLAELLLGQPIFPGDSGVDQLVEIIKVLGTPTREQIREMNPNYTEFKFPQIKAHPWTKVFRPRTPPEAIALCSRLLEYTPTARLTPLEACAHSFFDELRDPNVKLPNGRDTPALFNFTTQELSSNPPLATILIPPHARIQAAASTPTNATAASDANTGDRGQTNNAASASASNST
Assay [10] concerns the target Dual specificity mitogen-activated protein kinase kinase 2 (Homo sapiens, UniProt P36507). As to the kind of experiment: Navigating the Kinome. Panel member name: MAP2K2.
Assay [11] addresses Macrophage-stimulating protein receptor (Homo sapiens, UniProt Q04912). Description: Navigating the Kinome. Panel member name: MST1R.
The target of assay [12] is Ribosomal protein S6 kinase alpha-3 (Homo sapiens, UniProt P51812).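 Also: measured within a kinome-wide profiling panel.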
The target in assay [13] is Proto-oncogene tyrosine-protein kinase receptor Ret (Homo sapiens, UniProt P07949).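 Also: measured within a kinome-wide profiling panel, RET as the panel member.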
Assay [14] concerns the target G protein-coupled receptor kinase 5 (Homo sapiens, UniProt P34947). Description: Navigating the Kinome. Panel member name: GPRK5.
Assay [15] has as its target High affinity nerve growth factor receptor (Homo sapiens, UniProt P04629).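 Also: NTRK1 tested as one member of a kinome-wide profiling panel.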
Assay [16] addresses T2, cAMP-dependent protein kinase catalytic subunit PRKX (Homo sapiens, UniProt P51817).
T2 sequence (P51817 whole entry): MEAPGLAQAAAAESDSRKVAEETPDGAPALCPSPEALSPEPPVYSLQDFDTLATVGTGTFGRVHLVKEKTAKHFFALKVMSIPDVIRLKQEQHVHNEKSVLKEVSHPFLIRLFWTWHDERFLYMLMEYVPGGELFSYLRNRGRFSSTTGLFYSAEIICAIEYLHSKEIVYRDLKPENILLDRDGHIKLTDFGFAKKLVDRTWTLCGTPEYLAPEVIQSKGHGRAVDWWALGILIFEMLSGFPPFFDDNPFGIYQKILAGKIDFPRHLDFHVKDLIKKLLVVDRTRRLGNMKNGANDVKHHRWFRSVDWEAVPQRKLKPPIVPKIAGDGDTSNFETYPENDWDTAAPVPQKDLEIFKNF

Assay [17] concerns the target Calcium/calmodulin-dependent protein kinase type II subunit alpha (Homo sapiens, UniProt Q9UQM7). As to the kind of experiment: Navigating the Kinome. Panel member name: CAMK2A.
Assay [18] deals with Dual specificity protein kinase CLK2 (Homo sapiens, UniProt P49760).
Assay [19] has as its target Tyrosine-protein kinase BTK (Homo sapiens, UniProt Q06187).

High affinity nerve growth factor receptor, sequence (P04629 whole entry): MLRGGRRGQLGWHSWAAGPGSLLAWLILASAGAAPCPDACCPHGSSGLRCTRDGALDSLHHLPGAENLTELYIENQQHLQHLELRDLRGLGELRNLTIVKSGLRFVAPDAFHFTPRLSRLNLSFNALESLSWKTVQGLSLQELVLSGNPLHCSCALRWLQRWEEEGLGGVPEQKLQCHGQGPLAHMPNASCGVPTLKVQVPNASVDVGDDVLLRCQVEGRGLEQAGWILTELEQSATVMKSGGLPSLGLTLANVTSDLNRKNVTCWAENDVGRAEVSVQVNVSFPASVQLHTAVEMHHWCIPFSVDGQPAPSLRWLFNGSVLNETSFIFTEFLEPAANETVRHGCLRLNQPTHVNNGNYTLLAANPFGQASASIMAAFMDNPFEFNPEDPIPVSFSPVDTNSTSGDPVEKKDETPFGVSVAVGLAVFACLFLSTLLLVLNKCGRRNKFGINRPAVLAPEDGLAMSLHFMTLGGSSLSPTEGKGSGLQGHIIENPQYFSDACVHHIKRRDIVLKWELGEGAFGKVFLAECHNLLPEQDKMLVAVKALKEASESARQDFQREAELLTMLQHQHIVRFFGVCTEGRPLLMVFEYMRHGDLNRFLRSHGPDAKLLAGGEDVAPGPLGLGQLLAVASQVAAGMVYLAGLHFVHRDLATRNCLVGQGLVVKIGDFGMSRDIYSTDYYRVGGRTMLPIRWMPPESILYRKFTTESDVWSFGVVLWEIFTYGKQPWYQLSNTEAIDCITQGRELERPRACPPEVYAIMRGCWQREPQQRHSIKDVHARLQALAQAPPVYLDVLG
Macrophage-stimulating protein receptor, sequence (Q04912 25-304 limits assumed): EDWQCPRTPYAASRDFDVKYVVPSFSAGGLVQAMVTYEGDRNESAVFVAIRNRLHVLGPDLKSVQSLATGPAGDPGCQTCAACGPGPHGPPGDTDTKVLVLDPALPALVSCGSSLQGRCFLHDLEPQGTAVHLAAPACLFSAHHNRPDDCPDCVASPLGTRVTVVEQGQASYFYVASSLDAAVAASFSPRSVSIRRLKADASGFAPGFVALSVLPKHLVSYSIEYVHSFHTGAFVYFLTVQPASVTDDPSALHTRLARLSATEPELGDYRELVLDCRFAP
Macrophage-stimulating protein receptor, sequence (Q04912 310-1400 limits assumed): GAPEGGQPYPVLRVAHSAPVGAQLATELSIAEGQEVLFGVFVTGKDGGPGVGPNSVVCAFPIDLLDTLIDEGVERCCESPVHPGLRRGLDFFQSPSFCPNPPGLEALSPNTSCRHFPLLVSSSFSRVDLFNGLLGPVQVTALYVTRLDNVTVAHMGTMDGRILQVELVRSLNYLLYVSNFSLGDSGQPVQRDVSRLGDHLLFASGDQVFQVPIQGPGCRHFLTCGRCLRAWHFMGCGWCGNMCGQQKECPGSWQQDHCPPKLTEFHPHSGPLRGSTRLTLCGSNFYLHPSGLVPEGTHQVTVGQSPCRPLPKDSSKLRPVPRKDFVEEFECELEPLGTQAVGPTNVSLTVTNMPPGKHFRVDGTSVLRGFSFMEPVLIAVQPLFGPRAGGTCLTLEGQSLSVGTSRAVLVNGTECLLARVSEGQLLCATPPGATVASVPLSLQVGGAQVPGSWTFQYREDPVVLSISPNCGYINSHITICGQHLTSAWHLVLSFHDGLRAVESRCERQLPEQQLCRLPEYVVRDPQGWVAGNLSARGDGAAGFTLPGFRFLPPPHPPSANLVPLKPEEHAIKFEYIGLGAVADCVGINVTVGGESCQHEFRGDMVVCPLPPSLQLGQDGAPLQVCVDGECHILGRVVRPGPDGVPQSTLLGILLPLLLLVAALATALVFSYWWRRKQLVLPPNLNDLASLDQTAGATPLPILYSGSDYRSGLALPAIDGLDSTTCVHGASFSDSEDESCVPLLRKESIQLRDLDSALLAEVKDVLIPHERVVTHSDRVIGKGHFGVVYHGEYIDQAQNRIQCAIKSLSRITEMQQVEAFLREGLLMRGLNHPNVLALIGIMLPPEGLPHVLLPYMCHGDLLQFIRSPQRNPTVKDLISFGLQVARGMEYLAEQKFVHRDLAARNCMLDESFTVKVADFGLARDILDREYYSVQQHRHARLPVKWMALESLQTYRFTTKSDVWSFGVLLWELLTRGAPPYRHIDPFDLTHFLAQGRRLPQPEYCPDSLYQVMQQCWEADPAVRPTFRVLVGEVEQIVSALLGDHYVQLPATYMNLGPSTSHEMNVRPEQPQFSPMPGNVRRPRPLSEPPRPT
Vascular endothelial growth factor receptor 2, sequence (P35968 whole entry): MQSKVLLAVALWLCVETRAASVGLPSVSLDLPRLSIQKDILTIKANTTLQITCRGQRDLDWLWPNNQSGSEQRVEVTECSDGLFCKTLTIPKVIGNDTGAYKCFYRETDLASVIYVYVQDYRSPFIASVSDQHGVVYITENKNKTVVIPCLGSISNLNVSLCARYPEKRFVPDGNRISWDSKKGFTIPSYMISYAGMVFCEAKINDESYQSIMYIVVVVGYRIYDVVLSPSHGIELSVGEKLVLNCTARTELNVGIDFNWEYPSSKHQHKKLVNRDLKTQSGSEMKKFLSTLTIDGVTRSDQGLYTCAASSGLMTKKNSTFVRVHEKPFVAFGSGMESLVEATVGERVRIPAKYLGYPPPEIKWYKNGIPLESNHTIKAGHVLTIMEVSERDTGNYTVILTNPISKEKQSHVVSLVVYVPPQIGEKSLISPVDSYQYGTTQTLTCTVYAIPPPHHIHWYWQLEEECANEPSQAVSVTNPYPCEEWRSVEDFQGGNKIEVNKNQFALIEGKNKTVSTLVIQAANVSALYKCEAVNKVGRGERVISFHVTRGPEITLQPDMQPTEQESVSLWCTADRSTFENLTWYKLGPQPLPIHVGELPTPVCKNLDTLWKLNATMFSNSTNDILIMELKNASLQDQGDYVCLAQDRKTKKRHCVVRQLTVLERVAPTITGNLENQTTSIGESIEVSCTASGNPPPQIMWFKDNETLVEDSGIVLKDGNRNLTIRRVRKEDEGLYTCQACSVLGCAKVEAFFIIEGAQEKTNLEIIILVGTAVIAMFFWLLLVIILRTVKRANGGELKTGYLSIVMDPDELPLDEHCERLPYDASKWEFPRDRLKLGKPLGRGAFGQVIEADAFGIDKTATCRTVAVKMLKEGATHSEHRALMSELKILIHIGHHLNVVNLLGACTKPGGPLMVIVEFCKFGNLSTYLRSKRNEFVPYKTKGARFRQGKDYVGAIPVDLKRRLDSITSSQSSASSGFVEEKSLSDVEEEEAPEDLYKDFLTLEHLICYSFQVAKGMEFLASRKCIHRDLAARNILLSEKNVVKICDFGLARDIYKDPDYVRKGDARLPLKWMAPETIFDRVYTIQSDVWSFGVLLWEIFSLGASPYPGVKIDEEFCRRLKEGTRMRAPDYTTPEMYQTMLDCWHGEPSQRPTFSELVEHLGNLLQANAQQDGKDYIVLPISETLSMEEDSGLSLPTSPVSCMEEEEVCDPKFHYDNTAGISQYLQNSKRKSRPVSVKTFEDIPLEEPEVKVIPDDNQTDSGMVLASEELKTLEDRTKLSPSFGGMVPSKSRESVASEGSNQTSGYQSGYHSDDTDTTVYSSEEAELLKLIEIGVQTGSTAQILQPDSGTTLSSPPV
Glycogen synthase kinase-3 alpha, sequence (P49840 whole entry): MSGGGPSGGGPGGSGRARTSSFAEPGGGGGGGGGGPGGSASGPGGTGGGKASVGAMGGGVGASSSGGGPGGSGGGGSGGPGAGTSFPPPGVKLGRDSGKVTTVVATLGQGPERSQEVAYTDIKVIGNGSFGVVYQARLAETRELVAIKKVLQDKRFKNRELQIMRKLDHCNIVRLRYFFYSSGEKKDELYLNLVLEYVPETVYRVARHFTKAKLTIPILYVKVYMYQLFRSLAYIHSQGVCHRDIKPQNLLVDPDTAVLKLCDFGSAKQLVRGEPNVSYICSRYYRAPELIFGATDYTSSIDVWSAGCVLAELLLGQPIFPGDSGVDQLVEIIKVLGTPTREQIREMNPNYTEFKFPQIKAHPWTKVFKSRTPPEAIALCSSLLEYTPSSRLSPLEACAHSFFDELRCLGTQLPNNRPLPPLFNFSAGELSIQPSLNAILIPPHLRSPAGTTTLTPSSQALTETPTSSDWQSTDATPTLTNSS

For `Oc1ccc(-c2nc(-c3ccncc3)c(-c3ccc(F)cc3)[nH]2)cc1` [SB-202190], the Ki in assay [1] is > 2.51 µM (inactive); in [2], > 5.01 µM (inactive); in assay [3] it was > 3.16 µM (inactive); in assay [4], > 2.51 µM (inactive); in assay [5] it was > 3.98 µM (inactive); in assay [6], > 2.51 µM (inactive). For the same compound, the inhibition constant (Ki) in assay [7] is 2.51 µM (active); in [8], > 2 µM (inactive); in assay [9], > 2.51 µM (inactive); in assay [10] it was > 3.98 µM (inactive); in assay [11], > 3.98 µM (inactive); in assay [12] it was > 3.98 µM (inactive). In addition, the Ki is > 3.16 µM (inactive) in assay [13]; > 3.98 µM (inactive) in [14]; > 3.16 µM (inactive) in assay [15]; > 3.16 µM (inactive) in assay [16]; > 3.98 µM (inactive) in [17]; > 3.98 µM (inactive) in [18]. The Ki in assay [19] was > 6.31 µM (inactive).

On to `CCCCC(=O)Nc1cc(-c2c[nH]c3ncccc23)cc(Cl)n1`, for which the Ki in assay [1] was > 2.51 µM (inactive); in [2], > 5.01 µM (inactive); in assay [3], > 3.16 µM (inactive); in [4], > 2.51 µM (inactive); in assay [5], > 3.98 µM (inactive); in assay [6], > 2.51 µM (inactive). Besides, the inhibition constant (Ki) in assay [7] was 0.0126 µM (active); in assay [8] it was > 2.51 µM (inactive); in [9] it was > 3.98 µM (inactive); in [10], > 3.98 µM (inactive); in [11] it was > 3.98 µM (inactive); in assay [12] it was > 3.98 µM (inactive). Besides, the Ki in assay [13] is > 3.16 µM (inactive); in assay [14], > 3.98 µM (inactive); in assay [15] it was > 3.16 µM (inactive); in assay [16] it was > 3.16 µM (inactive); in assay [17] it was > 7.94 µM (inactive); in [18] it was 1.58 µM (active). The Ki in assay [19] was > 6.31 µM (inactive).

Turning to `COc1cccc(C(C)NC(=O)c2sc(-c3ccncc3)nc2C)c1` (configuration not stated), the Ki in assay [1] was > 3.16 µM (inactive); in [2], > 5.01 µM (inactive); in assay [3], > 3.16 µM (inactive); in assay [4] it was > 2.51 µM (inactive); in assay [5], > 3.98 µM (inactive); in assay [6], > 2.51 µM (inactive). Also, the Ki was > 2.51 µM (inactive) in assay [7]; > 2.51 µM (inactive) in [8]; > 3.98 µM (inactive) in assay [9]; > 3.98 µM (inactive) in assay [10]; > 3.98 µM (inactive) in assay [11]; > 3.98 µM (inactive) in assay [12]. The Ki in assay [13] is > 3.16 µM (inactive); in assay [14], > 3.98 µM (inactive); in assay [15] it was > 3.16 µM (inactive); in assay [16] it was > 3.16 µM (inactive); in [17] it was > 3.98 µM (inactive); in assay [18], > 3.98 µM (inactive). In addition, the Ki in assay [19] is > 6.31 µM (inactive).
